The numbers were not newly measured in patent publication US20110091459A1, “IMIDAZOLE MODULATORS OF MUSCARINIC ACETYLCHOLINE RECEPTOR M3” (AUSPEX PHARMACEUTICALS, INC., priority 2008, published 2011), which cites them from elsewhere.

By half-life is commonly meant the time in which the quantity being followed falls by half.

Structures are written as SMILES.

For data set [1] the following is noted: metabolite formed by CYP2A6 mediated hydroxylation of the lactone ring.
The conditions of data set [2]: in vivo.
For data set [3] the following is noted: in vivo. The source holds these as a separate data set.

In the case of `CC[C@@]1(O)C(=O)OC[C@H]1Cc1cncn1C` [3-hydroxypilocarpine], the pharmacological activity result in data set [1] is “pharmacologically inactive”.

For `CC[C@@H]1C(=O)OC[C@@H]1Cc1cncn1C` [Pilocarpine, (3S,4R)-3-ethyl-4-((1-methyl-1H-imidazol-5-yl)methyl)dihydrofuran-2(3H)-one], the adverse effects result in data set [2] is “blurred vision, nightblindness, and pulmonary edema”. Moreover, the half-life in data set [3] is 45.6 to 81 min.
